The text below walks through data of PubChem BioAssay AID226 (DTP/NCI, 2004).

The test system of this assay is B6C3F1 mice, intracerebral ependymoblastoma, median survival T/C. Kind of assay: NCI In Vivo Anticancer Drug Screen. Data for tumor model Ependymoblastoma (intracerebral) in B6C3F1 mice. The following applies: endpoint: median survival time, higher = longer survival. The procedure:
The antitumor activity of compounds was measured in mice bearing transplantable tumors. Survival or tumor size were measured and the results are expressed as the measurement made in the treated group (T) divided by the measurement made in the vehicle treated control group (C). The tumor model used in this assay is Ependymoblastoma (intracerebral) in B6C3F1 mice

[1] abbreviates: dose: 32.0 mg/kg/injection, schedule: Q01DX005 (ip), vehicle: saline with Tween-80.
Where [2] appears, read: dose: 128.0 mg/kg/injection, schedule: Q01DX005 (ip), vehicle: saline with Tween-80.
Setting [3] is: dose: 8.0 mg/kg/injection, schedule: Q01DX005 (ip), vehicle: saline.
Where [4] appears, read: dose: 64.0 mg/kg/injection, schedule: Q01DX005 (ip), vehicle: saline with Tween-80.
Where [5] appears, read: dose: 64.0 mg/kg/injection, schedule: Q01DX005 (ip), vehicle: saline.
The mark [6] stands for this setting: dose: 256.0 mg/kg/injection, schedule: Q01DX005 (ip), vehicle: saline with Tween-80.
[7] abbreviates: dose: 512.0 mg/kg/injection, schedule: Q01DX005 (ip), vehicle: saline with Tween-80.

Molecules are shown by their SMILES. Where “and” joins values, the source holds several entries; their conditions need not be identical. Equal entries are not always repeated. Inconclusive results and toxic doses are left out.

Regarding `COc1c(C)c2c(c(O)c1C/C=C(\C)CCC(=O)O)C(=O)OC2`, the T/C (dose: 12.5 mg/kg/injection, schedule: Q01DX005 (ip), vehicle: saline) was 101 % of control; the T/C (dose: 25.0 mg/kg/injection, schedule: Q01DX005 (ip), vehicle: saline) is 105 % of control; the T/C (dose: 50.0 mg/kg/injection, schedule: Q01DX005 (ip), vehicle: saline) was 100 % of control; the T/C (dose: 100.0 mg/kg/injection, schedule: Q01DX005 (ip), vehicle: saline) is 98 % of control; the T/C (dose: 200.0 mg/kg/injection, schedule: Q01DX005 (ip), vehicle: saline) is 102 % of control; the T/C (dose: 400.0 mg/kg/injection, schedule: Q01DX005 (ip), vehicle: saline) was 98 % of control.
`CCCS(=O)CC1NC(=O)NC1=O` (stereo unspecified): the T/C is 101 % of control (dose: 9.38 mg/kg/injection, schedule: Q01DX005 (ip), vehicle: Klucel (hydroxypropylcellulose) (HPC)); 98 % of control (dose: 18.75 mg/kg/injection, schedule: Q01DX005 (ip), vehicle: Klucel (hydroxypropylcellulose) (HPC)); 109 % of control (dose: 37.5 mg/kg/injection, schedule: Q01DX005 (ip), vehicle: Klucel (hydroxypropylcellulose) (HPC)); 106 % of control (dose: 75.0 mg/kg/injection, schedule: Q01DX005 (ip), vehicle: Klucel (hydroxypropylcellulose) (HPC)); 98 % of control (dose: 150.0 mg/kg/injection, schedule: Q01DX005 (ip), vehicle: Klucel (hydroxypropylcellulose) (HPC)).
On to `O=NN(CCF)C(=O)NC1CCC(=O)NC1=O` (stereo unspecified), for which the T/C was 186 % of control (dose: 5.18 mg/kg/injection, schedule: Q01DX005 (ip), vehicle: Klucel (hydroxypropylcellulose) (HPC)); 232 % of control (dose: 8.64 mg/kg/injection, schedule: Q01DX005 (ip), vehicle: Klucel (hydroxypropylcellulose) (HPC)); 357 % of control (dose: 14.4 mg/kg/injection, schedule: Q01DX005 (ip), vehicle: Klucel (hydroxypropylcellulose) (HPC)); 357 % of control (dose: 24.0 mg/kg/injection, schedule: Q01DX005 (ip), vehicle: Klucel (hydroxypropylcellulose) (HPC)).
Take `COC1OC(CNC(=O)N(CCCl)N=O)C(O)C(O)C1O` (stereo unspecified): the T/C was 103 % of control and 119 % of control (dose: 0.5 mg/kg/injection, schedule: Q01DX001 (ip), vehicle: saline); 109 % of control and 86 % of control (dose: 1.0 mg/kg/injection, schedule: Q01DX001 (ip), vehicle: saline); 99 % of control and 103 % of control (dose: 2.0 mg/kg/injection, schedule: Q01DX001 (ip), vehicle: saline); 105 % of control and 109 % of control (dose: 4.0 mg/kg/injection, schedule: Q01DX001 (ip), vehicle: saline); 103 % of control and 111 % of control (dose: 8.0 mg/kg/injection, schedule: Q01DX001 (ip), vehicle: saline); 119 % of control (dose: 16.0 mg/kg/injection, schedule: Q01DX001 (ip), vehicle: saline).
`C#CCN(C)/N=N/c1nc[nH]c1C(N)=O`: the T/C under setting [1] is 150 % of control and the T/C under setting [2] is 157 % of control.
On to `COc1cccc2c1C(=O)c1c(O)c3c(c(O)c1C2=O)C[C@@](O)(/C(C)=N/NC(=O)c1ccccc1)C[C@@H]3OC1CC(N)C(O)C(C)O1` (stereo partly specified), for which the T/C reads like this: (dose: 2.0 mg/kg/injection, schedule: Q01DX005 (ip), vehicle: saline) 97 % of control; (dose: 4.0 mg/kg/injection, schedule: Q01DX005 (ip), vehicle: saline) 95 % of control; under setting [3], 98 % of control.
With `COc1ccc2c(c1OC(C)=O)-c1cc(OC(C)=O)cc3c1C(C2)N(C(=O)CN(CCCl)CCCl)CC3` (stereo unspecified), the T/C (dose: 12.5 mg/kg/injection, schedule: Q01DX005 (ip), vehicle: DMSO) is 108 % of control.
Turning to `CC1=C(/C=C/C(C)=C/C=C/C(C)=C/C(=O)O)C(C)(C)CCC1`, the T/C is 99 % of control (dose: 8.0 mg/kg/injection, schedule: Q01DX005 (ip), vehicle: saline with Tween-80); 119 % of control (dose: 16.0 mg/kg/injection, schedule: Q01DX005 (ip), vehicle: saline with Tween-80); 115 % of control under setting [1]; 118 % of control under setting [4]; 109 % of control under setting [2].
Regarding `CCN(CC)CCOc1ccc(/C(=C(\Cl)c2ccccc2)c2ccccc2)cc1`, the T/C under setting [3] was 101 % of control and 106 % of control; the T/C (dose: 16.0 mg/kg/injection, schedule: Q01DX005 (ip), vehicle: saline) is 93 % of control and 100 % of control; the T/C (dose: 32.0 mg/kg/injection, schedule: Q01DX005 (ip), vehicle: saline) was 92 % of control and 103 % of control; the T/C under setting [5] was 101 % of control and 104 % of control.
As to `CC(C)(N)C(=O)O`, the T/C (dose: 12.5 mg/kg/injection, schedule: Q01DX005 (ip), vehicle: saline with Tween-80) is 103 % of control; the T/C (dose: 25.0 mg/kg/injection, schedule: Q01DX005 (ip), vehicle: saline with Tween-80) was 114 % of control; the T/C (dose: 50.0 mg/kg/injection, schedule: Q01DX005 (ip), vehicle: saline with Tween-80) was 114 % of control; the T/C (dose: 100.0 mg/kg/injection, schedule: Q01DX005 (ip), vehicle: saline with Tween-80) was 105 % of control; the T/C (dose: 200.0 mg/kg/injection, schedule: Q01DX005 (ip), vehicle: saline with Tween-80) was 97 % of control; the T/C (dose: 400.0 mg/kg/injection, schedule: Q01DX005 (ip), vehicle: saline with Tween-80) was 95 % of control. In addition, the T/C by setting is: (dose: 800.0 mg/kg/injection, schedule: Q01DX005 (ip), vehicle: saline with Tween-80) 98 % of control; (dose: 1600.0 mg/kg/injection, schedule: Q01DX005 (ip), vehicle: saline with Tween-80) 116 % of control.
On to `Nc1ncnc2c1ncn2C1OC(CO)C(O)C1O` (stereo unspecified), for which the T/C reads like this: (dose: 64.0 mg/kg/injection, schedule: Q01DX005 (ip), vehicle: Klucel (hydroxypropylcellulose) (HPC)) 101 % of control; (dose: 128.0 mg/kg/injection, schedule: Q01DX005 (ip), vehicle: Klucel (hydroxypropylcellulose) (HPC)) 92 % of control; (dose: 256.0 mg/kg/injection, schedule: Q01DX005 (ip), vehicle: Klucel (hydroxypropylcellulose) (HPC)) 96 % of control; (dose: 512.0 mg/kg/injection, schedule: Q01DX005 (ip), vehicle: Klucel (hydroxypropylcellulose) (HPC)) 94 % of control; (dose: 1024.0 mg/kg/injection, schedule: Q01DX005 (ip), vehicle: Klucel (hydroxypropylcellulose) (HPC)) 98 % of control.
With `CN(C)N=Nc1ccc([N+](=O)[O-])cc1C(N)=O`, the T/C under setting [1] is 112 % of control, the T/C under setting [6] is 167 % of control and the T/C under setting [7] is 150 % of control.
Take `CC(=O)OC1COC(NC(=O)N(CCCl)N=O)C(OC(C)=O)C1OC(C)=O` (stereo unspecified): the T/C is, setting by setting: (dose: 0.18 mg/kg/injection, schedule: Q01DX009 (ip), vehicle: saline with Tween-80) 103 % of control; (dose: 0.38 mg/kg/injection, schedule: Q01DX009 (ip), vehicle: saline with Tween-80) 117 % of control; (dose: 0.75 mg/kg/injection, schedule: Q01DX005 (ip), vehicle: saline with Tween-80) 113 % of control; (dose: 1.5 mg/kg/injection, schedule: Q01DX005 (ip), vehicle: saline with Tween-80) 96 % of control and 121 % of control; (dose: 3.0 mg/kg/injection, schedule: Q01DX005 (ip), vehicle: saline with Tween-80) 91 % of control; (dose: 3.0 mg/kg/injection, schedule: Q01DX009 (ip), vehicle: saline with Tween-80) 178 % of control. Also, the T/C by setting is: (dose: 6.0 mg/kg/injection, schedule: Q01DX005 (ip), vehicle: saline with Tween-80) 107 % of control; (dose: 6.0 mg/kg/injection, schedule: Q01DX009 (ip), vehicle: saline with Tween-80) 165 % of control; (dose: 12.0 mg/kg/injection, schedule: Q01DX005 (ip), vehicle: saline with Tween-80) 158 % of control.
For the compound `O=c1ccn(C2OC(CO)C(O)C2O)c(=O)[nH]1` (stereo unspecified), the T/C was 113 % of control under setting [4]; 109 % of control under setting [5]; 90 % of control under setting [2]; 94 % of control (dose: 128.0 mg/kg/injection, schedule: Q01DX005 (ip), vehicle: saline); 109 % of control under setting [6]; 100 % of control (dose: 256.0 mg/kg/injection, schedule: Q01DX005 (ip), vehicle: saline). The T/C runs as follows: under setting [7], 99 % of control; (dose: 512.0 mg/kg/injection, schedule: Q01DX005 (ip), vehicle: saline) 94 % of control; (dose: 1024.0 mg/kg/injection, schedule: Q01DX005 (ip), vehicle: saline with Tween-80) 99 % of control; (dose: 1024.0 mg/kg/injection, schedule: Q01DX005 (ip), vehicle: saline) 96 % of control.
